According to publication PMC9234961 (Journal of Medicinal Chemistry, 2022):
Like-named read-outs stand apart in the source and are kept apart here.

How the values were obtained:
[1] = biological target: kinases (468) (Homo sapiens, UniProt Q05655); conditions: PRKCD; 1000 nM
[2] = biological target: kinases (468) (Homo sapiens, UniProt P36897); conditions: kinase TGFBR1 (Entrez TGFBR1); compound concentration 1000 nM
[3] = biological target: kinases (468) (Homo sapiens, UniProt P49336); conditions: CDK8; 1000 nM
[4] = biological target: kinases (468) (Homo sapiens, UniProt P35968); conditions: kinase VEGFR2 (Entrez KDR); compound concentration 1000 nM
[5] = biological target: kinases (468) (Homo sapiens, UniProt Q15831); conditions: LKB1 (STK11); 1000 nM
[6] = biological target: kinases (468) (Homo sapiens, UniProt P53779); conditions: JNK3 (MAPK10); 1000 nM
[7] = biological target: kinases (468) (Homo sapiens, UniProt Q04771); conditions: ACVR1; 1000 nM
[8] = biological target: kinases (468) (Homo sapiens, UniProt Q9BYP7); conditions: kinase WNK3 (Entrez WNK3); compound concentration 1000 nM
[9] = biological target: kinases (468) (Homo sapiens, UniProt P00519, F317L); conditions: 1000 nM
[10] = biological target: kinases (468) (Homo sapiens, UniProt Q9UF33); conditions: EPHA6; 1000 nM
[11] = biological target: kinases (468) (Homo sapiens, UniProt O75716); conditions: kinase STK16 (Entrez STK16); compound concentration 1000 nM
[12] = biological target: kinases (468) (Homo sapiens, UniProt Q6P3R8); conditions: NEK5; 1000 nM
[13] = biological target: kinases (468) (Homo sapiens, UniProt P21709); conditions: EPHA1; 1000 nM
[14] = biological target: kinases (468) (Homo sapiens, UniProt P57058); conditions: HUNK; 1000 nM
[15] = biological target: kinases (468) (Homo sapiens, UniProt Q99683); conditions: ASK1 (MAP3K5); 1000 nM
[16] = biological target: kinases (468) (Homo sapiens, UniProt O75914); conditions: PAK3; 1000 nM
[17] = biological target: kinases (468) (Homo sapiens, UniProt Q8TDR2); conditions: kinase STK35 (Entrez STK35); compound concentration 1000 nM
[18] = biological target: kinases (468) (Homo sapiens, UniProt P54756); conditions: EPHA5; 1000 nM
[19] = biological target: kinases (468) (Homo sapiens, UniProt Q13705); conditions: ACVR2B; 1000 nM
[20] = biological target: kinases (468) (Homo sapiens, UniProt P51812); conditions: compound concentration 1000 nM
[21] = biological target: kinases (468) (Homo sapiens, UniProt Q15208); conditions: NDR1 (STK38); 1000 nM
[22] = biological target: kinases (468) (Homo sapiens, UniProt O95382); conditions: ASK2 (MAP3K6); 1000 nM
[23] = biological target: kinases (468) (Homo sapiens, UniProt Q13464); conditions: kinase ROCK1 (Entrez ROCK1); compound concentration 1000 nM
[24] = biological target: kinases (468) (Homo sapiens, UniProt P07949, M918T); conditions: kinase RET(M918T) (Entrez RET); compound concentration 1000 nM
[25] = biological target: kinases (468) (Homo sapiens, UniProt Q14164); conditions: IKK-epsilon (IKBKE); 1000 nM
[26] = biological target: kinases (468) (Homo sapiens, UniProt Q08881); conditions: ITK; 1000 nM
[27] = biological target: kinases (468) (Homo sapiens, UniProt O43283); conditions: LZK (MAP3K13); 1000 nM
[28] = biological target: kinases (468) (Homo sapiens, UniProt P11362); conditions: FGFR1; 1000 nM
[29] = biological target: kinases (468) (Homo sapiens, UniProt P57059); conditions: kinase SIK (Entrez SIK1); compound concentration 1000 nM
[30] = biological target: kinases (468) (Homo sapiens, UniProt P36888); conditions: 1000 nM
[31] = biological target: kinases (468) (Homo sapiens, UniProt Q13546); conditions: kinase RIPK1 (Entrez RIPK1); compound concentration 1000 nM
[32] = biological target: kinases (468) (Homo sapiens, UniProt P20794); conditions: MAK; 1000 nM
[33] = biological target: kinases (468) (Homo sapiens, UniProt Q8WU08); conditions: kinase YANK1 (Entrez STK32A); compound concentration 1000 nM

Chain of kinases (468) (Homo sapiens, UniProt P51812) (P51812 whole entry): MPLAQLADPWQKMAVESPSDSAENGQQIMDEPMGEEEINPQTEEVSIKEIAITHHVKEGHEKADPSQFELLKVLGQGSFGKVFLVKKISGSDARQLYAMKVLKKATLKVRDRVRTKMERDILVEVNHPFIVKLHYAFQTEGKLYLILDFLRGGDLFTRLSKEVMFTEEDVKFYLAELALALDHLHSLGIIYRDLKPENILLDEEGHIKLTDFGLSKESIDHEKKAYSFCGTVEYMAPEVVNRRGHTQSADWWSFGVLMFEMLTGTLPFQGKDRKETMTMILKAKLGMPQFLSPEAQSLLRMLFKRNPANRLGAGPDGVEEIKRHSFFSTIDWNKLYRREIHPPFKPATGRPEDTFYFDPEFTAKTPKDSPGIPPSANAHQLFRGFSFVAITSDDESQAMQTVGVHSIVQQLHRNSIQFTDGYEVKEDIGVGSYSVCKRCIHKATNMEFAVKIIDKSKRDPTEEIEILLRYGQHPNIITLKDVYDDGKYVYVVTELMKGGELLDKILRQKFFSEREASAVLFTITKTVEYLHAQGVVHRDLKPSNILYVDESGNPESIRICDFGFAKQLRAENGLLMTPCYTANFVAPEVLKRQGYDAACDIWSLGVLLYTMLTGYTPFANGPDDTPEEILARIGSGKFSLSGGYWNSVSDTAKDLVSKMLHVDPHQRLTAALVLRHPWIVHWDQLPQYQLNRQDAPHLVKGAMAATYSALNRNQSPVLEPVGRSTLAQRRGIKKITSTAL
Chain of kinases (468) (Homo sapiens, UniProt P36888) (P36888 27-993): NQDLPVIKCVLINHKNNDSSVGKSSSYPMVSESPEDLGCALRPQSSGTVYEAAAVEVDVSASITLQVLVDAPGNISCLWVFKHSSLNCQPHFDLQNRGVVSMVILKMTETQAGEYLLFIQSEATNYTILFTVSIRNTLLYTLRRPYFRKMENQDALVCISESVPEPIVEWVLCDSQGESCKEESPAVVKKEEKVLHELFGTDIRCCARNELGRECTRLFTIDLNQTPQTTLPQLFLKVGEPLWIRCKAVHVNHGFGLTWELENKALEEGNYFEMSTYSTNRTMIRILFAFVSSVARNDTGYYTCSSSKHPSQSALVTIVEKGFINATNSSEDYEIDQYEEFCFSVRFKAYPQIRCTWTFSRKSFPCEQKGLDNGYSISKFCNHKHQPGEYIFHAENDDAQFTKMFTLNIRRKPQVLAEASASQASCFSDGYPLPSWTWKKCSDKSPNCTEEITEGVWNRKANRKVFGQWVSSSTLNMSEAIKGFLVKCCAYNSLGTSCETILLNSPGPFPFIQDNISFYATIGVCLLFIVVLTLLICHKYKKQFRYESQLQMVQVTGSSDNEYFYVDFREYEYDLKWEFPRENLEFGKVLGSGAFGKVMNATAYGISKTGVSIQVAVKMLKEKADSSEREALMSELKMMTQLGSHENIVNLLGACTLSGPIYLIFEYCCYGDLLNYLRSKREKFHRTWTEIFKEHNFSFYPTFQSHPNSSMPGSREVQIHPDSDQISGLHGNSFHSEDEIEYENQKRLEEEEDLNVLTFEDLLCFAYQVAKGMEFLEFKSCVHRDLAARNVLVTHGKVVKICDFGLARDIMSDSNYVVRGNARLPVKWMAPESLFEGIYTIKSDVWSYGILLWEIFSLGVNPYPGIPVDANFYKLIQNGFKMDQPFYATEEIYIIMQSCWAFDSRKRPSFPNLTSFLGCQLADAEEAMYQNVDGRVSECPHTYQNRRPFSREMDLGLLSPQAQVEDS
Chain of kinases (468) (Homo sapiens, UniProt P00519, F317L) (P00519 whole entry F317L): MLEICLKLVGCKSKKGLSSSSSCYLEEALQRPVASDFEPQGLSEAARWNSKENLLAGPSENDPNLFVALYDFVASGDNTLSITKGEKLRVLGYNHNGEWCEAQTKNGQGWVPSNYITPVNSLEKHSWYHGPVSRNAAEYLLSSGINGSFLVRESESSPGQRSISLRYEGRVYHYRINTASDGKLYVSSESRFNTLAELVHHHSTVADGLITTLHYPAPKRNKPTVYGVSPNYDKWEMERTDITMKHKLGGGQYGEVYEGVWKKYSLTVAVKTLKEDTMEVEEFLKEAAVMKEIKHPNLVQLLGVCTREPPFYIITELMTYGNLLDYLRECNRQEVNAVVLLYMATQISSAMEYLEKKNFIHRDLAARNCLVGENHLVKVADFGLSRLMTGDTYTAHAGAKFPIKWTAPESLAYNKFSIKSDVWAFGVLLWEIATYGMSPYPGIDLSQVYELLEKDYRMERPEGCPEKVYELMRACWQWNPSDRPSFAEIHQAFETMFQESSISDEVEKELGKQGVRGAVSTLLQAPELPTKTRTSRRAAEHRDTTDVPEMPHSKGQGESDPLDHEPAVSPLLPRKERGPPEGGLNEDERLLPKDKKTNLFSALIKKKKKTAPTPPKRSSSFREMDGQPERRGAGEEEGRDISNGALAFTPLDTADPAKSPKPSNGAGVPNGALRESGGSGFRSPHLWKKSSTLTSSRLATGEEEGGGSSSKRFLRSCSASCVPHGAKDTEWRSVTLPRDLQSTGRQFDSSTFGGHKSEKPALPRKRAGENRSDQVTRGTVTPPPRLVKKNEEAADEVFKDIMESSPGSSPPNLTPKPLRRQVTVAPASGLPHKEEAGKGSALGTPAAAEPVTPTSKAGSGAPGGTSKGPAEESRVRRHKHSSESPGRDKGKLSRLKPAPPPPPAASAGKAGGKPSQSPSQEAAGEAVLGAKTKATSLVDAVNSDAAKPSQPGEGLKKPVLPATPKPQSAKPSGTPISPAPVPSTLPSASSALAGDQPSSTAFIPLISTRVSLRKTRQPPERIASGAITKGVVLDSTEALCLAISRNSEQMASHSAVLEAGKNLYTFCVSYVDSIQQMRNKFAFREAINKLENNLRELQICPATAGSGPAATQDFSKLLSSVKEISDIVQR
Chain of kinases (468) (Homo sapiens, UniProt P11362) (P11362 22-822): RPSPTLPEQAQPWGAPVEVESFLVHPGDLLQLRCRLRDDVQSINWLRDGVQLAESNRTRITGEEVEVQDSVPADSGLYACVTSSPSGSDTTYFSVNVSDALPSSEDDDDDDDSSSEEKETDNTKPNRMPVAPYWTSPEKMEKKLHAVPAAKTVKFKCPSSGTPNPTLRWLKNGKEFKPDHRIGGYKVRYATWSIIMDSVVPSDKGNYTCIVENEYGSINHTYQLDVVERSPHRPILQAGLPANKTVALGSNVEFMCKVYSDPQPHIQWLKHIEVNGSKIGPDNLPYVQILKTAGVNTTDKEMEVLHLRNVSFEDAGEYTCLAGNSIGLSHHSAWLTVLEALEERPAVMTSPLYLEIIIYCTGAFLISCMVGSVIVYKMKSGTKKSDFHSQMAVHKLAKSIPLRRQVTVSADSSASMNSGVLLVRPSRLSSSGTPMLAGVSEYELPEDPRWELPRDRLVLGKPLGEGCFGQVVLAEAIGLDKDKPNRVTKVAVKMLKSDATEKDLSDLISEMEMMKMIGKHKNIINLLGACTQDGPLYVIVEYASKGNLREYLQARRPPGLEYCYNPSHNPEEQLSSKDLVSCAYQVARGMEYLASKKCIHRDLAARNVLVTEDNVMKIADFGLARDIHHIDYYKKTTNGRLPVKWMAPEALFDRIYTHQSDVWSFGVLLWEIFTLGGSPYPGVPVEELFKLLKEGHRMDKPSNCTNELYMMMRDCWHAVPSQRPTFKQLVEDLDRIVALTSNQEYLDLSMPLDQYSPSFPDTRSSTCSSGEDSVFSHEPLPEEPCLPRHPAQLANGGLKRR
Chain of kinases (468) (Homo sapiens, UniProt Q08881) (Q08881 whole entry): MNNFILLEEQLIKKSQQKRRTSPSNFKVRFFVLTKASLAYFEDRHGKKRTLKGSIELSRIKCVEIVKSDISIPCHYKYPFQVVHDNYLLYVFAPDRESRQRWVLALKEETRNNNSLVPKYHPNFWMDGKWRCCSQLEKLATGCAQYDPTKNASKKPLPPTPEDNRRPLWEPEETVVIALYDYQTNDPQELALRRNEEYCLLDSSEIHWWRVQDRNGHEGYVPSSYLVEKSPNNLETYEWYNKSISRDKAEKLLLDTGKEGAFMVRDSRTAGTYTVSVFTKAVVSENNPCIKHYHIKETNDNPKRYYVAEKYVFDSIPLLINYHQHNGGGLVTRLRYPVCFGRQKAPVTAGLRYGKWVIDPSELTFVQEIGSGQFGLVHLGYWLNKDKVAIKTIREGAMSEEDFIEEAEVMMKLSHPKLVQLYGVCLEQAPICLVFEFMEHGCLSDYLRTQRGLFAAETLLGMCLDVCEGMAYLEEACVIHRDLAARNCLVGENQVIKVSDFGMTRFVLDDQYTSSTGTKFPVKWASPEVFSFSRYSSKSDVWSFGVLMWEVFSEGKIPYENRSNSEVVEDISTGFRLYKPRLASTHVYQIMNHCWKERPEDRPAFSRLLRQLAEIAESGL
Chain of kinases (468) (Homo sapiens, UniProt Q13705) (Q13705 19-512): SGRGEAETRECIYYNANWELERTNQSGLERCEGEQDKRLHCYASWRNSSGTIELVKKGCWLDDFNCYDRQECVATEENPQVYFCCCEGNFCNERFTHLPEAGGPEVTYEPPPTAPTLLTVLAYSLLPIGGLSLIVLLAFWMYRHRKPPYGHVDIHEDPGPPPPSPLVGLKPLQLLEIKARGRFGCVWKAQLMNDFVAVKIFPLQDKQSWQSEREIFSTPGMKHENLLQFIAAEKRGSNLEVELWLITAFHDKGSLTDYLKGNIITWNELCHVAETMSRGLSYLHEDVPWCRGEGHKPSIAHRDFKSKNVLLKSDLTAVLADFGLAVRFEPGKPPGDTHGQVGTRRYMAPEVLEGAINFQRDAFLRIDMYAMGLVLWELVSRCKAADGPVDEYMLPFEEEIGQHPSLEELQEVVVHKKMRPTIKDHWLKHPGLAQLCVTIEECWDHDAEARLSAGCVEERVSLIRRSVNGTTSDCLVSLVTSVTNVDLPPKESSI
Chain of kinases (468) (Homo sapiens, UniProt O75716) (O75716 whole entry): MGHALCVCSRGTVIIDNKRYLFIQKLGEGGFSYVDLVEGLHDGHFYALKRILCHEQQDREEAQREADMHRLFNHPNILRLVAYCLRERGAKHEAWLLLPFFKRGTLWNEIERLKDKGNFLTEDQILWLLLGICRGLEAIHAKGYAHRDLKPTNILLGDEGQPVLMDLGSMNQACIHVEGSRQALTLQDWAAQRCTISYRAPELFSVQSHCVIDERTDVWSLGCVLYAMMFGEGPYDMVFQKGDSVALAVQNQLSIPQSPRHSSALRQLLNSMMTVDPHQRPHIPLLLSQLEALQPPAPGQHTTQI

Compound: C[C@H]1C[C@@H](O)CN(c2ncc(Cl)c(Nc3ccc4c(c3)c3c(c(=O)n4C)OCC(F)(F)[C@H](C4CC4)N3)n2)C1 [CCT373566_9A]
- Percent Control [1]: 100%
- Percent Control [2]: 89%
- Percent Control [3]: 100%
- Percent Control [4]: 95%
- Percent Control [5]: 65%
- Percent Control [6]: 87%
- Percent Control [7]: 85%
- Percent Control [8]: 96%
- Percent Control ([9]; ABL1(F317L)-nonphosphorylated): 100%
- Percent Control ([9]; ABL1(F317L)-phosphorylated): 93%
- Percent Control [10]: 100%
- Percent Control [11]: 88%
- Percent Control [12]: 100%
- Percent Control [13]: 100%
- Percent Control [14]: 100%
- Percent Control [15]: 100%
- Percent Control [16]: 99%
- Percent Control [17]: 99%
- Percent Control [18]: 98%
- Percent Control [19]: 84%
- Percent Control ([20]; kinase RSK2(Kin.Dom.1-N-terminal) (Entrez RPS6KA3)): 100%
- Percent Control ([20]; kinase RSK2(Kin.Dom.2-C-terminal) (Entrez RPS6KA3)): 100%
- Percent Control [21]: 100%
- Percent Control [22]: 98%
- Percent Control [23]: 93%
- Percent Control [24]: 100%
- Percent Control [25]: 100%
- Percent Control [26]: 100%
- Percent Control [27]: 81%
- Percent Control [28]: 100%
- Percent Control [29]: 98%
- Percent Control ([30]; FLT3-autoinhibited): 98%
- Percent Control ([30]; FLT3): 99%
- Percent Control [31]: 100%
- Percent Control [32]: 93%
- Percent Control [33]: 98%
